The subject of series [1] is honey bee workers (Apis mellifera). In words: 2-choice plate (petri-dish arena) assay, honey vs honey plus repellent candidate. The series is classed as in vivo. Conditions: 2-choice plate assay; for First choice Preference Index (repellent side): first visit and drink (repellent - solvent)/(repellent + solvent); for Honey consumption Preference Index (repellent side): plates where honeybees drank more honey from (repellent - solvent)/(repellent + solvent). The procedure: To date, we used capped brood frames from 10 colonies kept in three apiaries on campus at UC Riverside. After moving the brood (pupated honey bee larvae) into an observation frame inside an incubator overnight, we collected freshly emerged honey bee workers into groups of 80 per cage, providing them with a small piece of wax foundation, 50% sugar water and tap water ad libitum. Between day 3 and day 10 post emergence, we provided them with a protein dough. We removed dead workers and exchanged food every second day. After the bees reached foraging age (13-19 days post emergence), we grouped them into cages of 40 workers, each. To ensure that they were hungry enough to participate in our trials, we starved the workers before each experiment, depending on their age. Between 13 and 16 days of age, we wet-starved them for 17 hours by removing the sugar water tube from their cage, replacing it with an empty vial. Bees aged between 17 and 19 days were starved for six hours, only, to ensure their survival. On the day of the experiment, we removed dead bees and food vials from each cage, and placed the cage into a refrigerator, until the trial arena was ready, and the bees were cool enough to not move anymore.
To turn a 15 cm petri-dish into a 2-choice test arena, we taped a paper-grid on the outside of its bottom, establishing one side as honey (H) and the other as honey plus repellent candidate (HR, FIG. 3). Next, we pipetted 20 ul of pure acetone onto a 6 mm punch-out of filter paper, then let it evaporate in the fume hood for at least 30 min. We then taped the punch-out to the H-spot on the petri-dish. Repeating the process with 20 ul of the repellent candidate (5% in acetone), again letting the acetone evaporate for at least 30 Min, we stuck the now solely repellent-candidate-soaked punch-out onto the HR spot of the arena. To entice the bees to participate in our trial, we used a pipette and filled two 70 ul lids of PCR tubes full of pure, slightly warmed honey, until we observed a meniscus. We then taped one honey-filled lid onto the H, the other onto the HR filter paper, being careful not to disturb the meniscus.
We placed six prepared arenas onto a heating pillow turned onto level 1 (FIG. 2B), removed the cooled honey bee workers from the fridge and grouped between four and five bees into each plate, using insect tweezers. We filmed the bees for 60 Minutes, using an ipad (video at wide-angle, 0.5). To avoid glare, we staged the ipad on top of a plexi glass pane held by a cage constructed from pvc tubes, and covered with a double cotton sheet.
After each trial, we counted those plates, in which the honey wells had been touched as participating plates. We repeated the trials often enough to ensure participation in a minimum of five plates per repellent candidate. For each of the participating plates, we then screened each video to find the first bee that chose a honey well to drink from. The choice was recorded as either Honey (H) or Honey and repellent candidate (HR). We then calculated a Preference Index for each repellent candidate as follows: Number of repellent candidate choices minus number of honey choices) divided by sum of all choices).
The negative indexes indicate, that the honey bee workers did avoid the repellent candidates, but to varying degrees. The preference indexes show the first choices of honey bee workers (Apis mellifera) offered honey on filter paper with repellent-candidates versus honey only. Groups of 4-5 honeybee workers were placed in each 2-choice arena. Indexes are calculated per repellent candidate as (total number of repellent choices minus total number of solvent choices) divided by sum of all choices).
Preference Indexes for repellent candidates were determined in a manner similar to that described in Example 1. […]

Series [2] in a line: TGA volatility method of Example 4. The format is physicochemical. The following applies: 40° C. isothermal for 15 hours, slope between 800-900 minutes. The procedure:
Two BR3.3A (liquid) and BR 4.5 (solid) bee repellents were used in this example for comparison. BR 3.3A has a relatively higher volatility compared to BR 4.5. A TGA method was developed to characterize volatility of bee repellents. The volatility was measured by setting up a TGA method. In the TGA pan, 0.30 mg+0.02 mg of the bee repellent of interest is applied in an even layer on the bottom of the TGA pan immediately before starting the measurement. The TGA is programmed to have a balance purge flow of 40 mL/min and a sample purge flow of 60 mL/min. The TGA ramps from 25° C. to 40° C. at a rate of 5° C. per minute. Then the temperature is held isothermally at 40° C. for 15 hours. After the test has been completed, the slope is calculated for the % loss per minute between 800-900 minutes and the results are reported. The smaller the slope, the less the volatility. The volatility of BR3.3A measured by the above method has a slope of −4.61E-03%/min, and the slope for BR4.5 is −1.81E-04%/min.

Series [3] is described as follows: TGA volatility at 40 degrees Celsius (Example 3). The format is physicochemical. The following applies: isothermal at 40° C. for 900 minutes, slope from 800-900 minutes. The procedure:
Volatility may be measured by Thermogravimetric Analysis (TGA) method. Volatility of bee repellent compounds is measured by TGA at 40° C. (i.e., as bee repellent wt % loss per min at 40° C.). In some variations, a “high volatility” bee repellent compound has a volatility greater than 1E-04 (wt % loss/min at 40° C.). In some variations, a “low volatility” bee repellent compound has a bee repellent volatility less than 1E-04 (wt % loss/min at 40° C.).
A TA Instruments TGA5500 was used to determine the volatility of bee repellent chemicals at 40 degrees Celsius. The sample purge was set for 25 mL/min and the balance purge is set for 10 mL/min. A 30 mg sample of the chemical was placed in the sample pan, the temperature was ramped up to 40° C. at a rate of 10° C./min and was held isothermal at 40° C. for 900 minutes. The slope was then determined from 800-900 minutes to determine its volatility. The volatility of bee repellent compounds were determined according to Table 6 below.

The subject of the next series is honey bees. In words: Field study on flowering buckwheat patches, honey bee counts. The series is classed as in vivo. The following applies: emulsifiable concentrate sprayed at 4 kg/hectare; counts at 15 min, 30 min, 1 hour, 24 hours. The procedure:
In this field study, 12 patches of buckwheat were planted, each measuring approximately 2 m×2 m in size in the agricultural operations field. When the flowering was estimated to be >50%, the experiments were performed. Each patch was divided into 2 approximately equal parts based on flowers by observation, one side for treatment spray and the other as control solvent (water) spray (FIG. 9A). The patches for different treatments were in a block design and the treatment side in a patch was randomly assigned as water or treatment (FIG. 9B). The test chemicals in emulsifiable concentrate form were dissolved in water in a tank to spray at the rate equivalent to 4 kg/hectare. After the spraying the numbers of honey bees present on each side of each patch was counted by 3 human observers at the following time points: 15 min, 30 min, 1 hour, 24 hours. The average number of bees at each time point were used to calculate the percentage decrease in numbers of bees on the treatment side relative to the water side and plotted (FIG. 9C).

From patent publication US20250287942A1, “FORMULATIONS FOR REPELLING BEES AND OTHER INSECTS” (priority 2022, published 2025) come the findings set out here.

On to `C/C(=C\C(=O)c1ccccc1)c1ccccc1` [BR 3.42, (2E)-1,3-Diphenyl-2-buten-1-on], for which, in series [1], the “First choice Preference Index (repellent side)” value (shortened to “First choice Preference Index”) is −0.772 and the “Honey consumption Preference Index (repellent side)” value (shortened to “Honey consumption Preference Index”) was −0.727.
Turning to `CC(C)OC(C(=O)c1ccccc1)c1ccccc1` (stereo not shown) [BR 4.5, 2-Isopropox y-1,2-diphenyl-ethanone], in series [1], the “First choice Preference Index” value is on record as −0.8947 and the “Honey consumption Preference Index” value is given as −0.8947. The “slope, % loss per minute (TGA volatility)” value in series [2] was −1.81E-04 %/min.
`CCOC(=O)c1ccccc1I` [Ethyl 2-iodobenzoate]: the “TGA volatility @ 40° C. (weight loss %/min)” value in series [3] came to 6.66E−03 weight loss %/min.
As for `CCCCCC(=O)c1ccccc1` [Hexanophenone], in series [3], the “TGA volatility @ 40° C. (weight loss %/min)” value amounted to 1.11E−02 weight loss %/min.
Consider `CCOC(=O)Cc1cccc(C)c1` [Ethyl m-Tolylacetate], for which the “TGA volatility @ 40° C. (weight loss %/min)” value in series [3] worked out at 2.73E−02 weight loss %/min.
In the case of `CCCC(=O)CCc1ccccc1` [BR 3.4, 1-Phenyl-3-hexanone], in series [1], the “% honey left on repellent side” value was determined as 99.72%, the “First choice Preference Index” value is −1 and the “Honey consumption Preference Index” value is −1.
On to `CCN(CC)C(=O)c1cccc(C)c1` [DEET, N,N-diethyl-meta-toluamide, reference compound], for which, in series [3], the “TGA volatility @ 40° C. (weight loss %/min)” value was found to be 2.29E−03 weight loss %/min.
For the compound `CCOC(=O)c1ccccc1I` [BR 3.81, Ethyl 2-iodobenzoate], in series [1], the “% honey left on repellent side” value was found to be 99.17%, the “First choice Preference Index” value was −0.9 and the “Honey consumption Preference Index” value is given as −0.9. The “numbers of honey bees on treatment side relative to water side” value in the series with honey bees was “showed a decrease in numbers of honey bees”.
In the case of `CCOC(=O)CC1CCc2ccccc21` (stereo not shown) [BR 3.3A, ethyl 2-(2,3-dihydro-1H-inden-1-yl)acetate], in series [1], the “% honey left on repellent side” value was 95.83%, the “First choice Preference Index” value was −1 and the “Honey consumption Preference Index” value was −1. In addition, in series [2], the “slope, % loss per minute (TGA volatility)” value is listed as −4.61E-03 %/min.
`COCCC(=O)Oc1ccccc1` [BR 3.1, Phenyl 3-methoxy-propanoate]: in series [1], the “% honey left on repellent side” value is 99.17%, the “First choice Preference Index” value was −0.8333 and the “Honey consumption Preference Index” value is on record as −0.9166.
For `CCNC(=O)c1cccc(Br)c1` [BR 3.47, 3-bromo-N-ethylbenzamide], in series [1], the “% honey left on repellent side” value is given as 95.42%, the “First choice Preference Index” value is reported as −1 and the “Honey consumption Preference Index” value is recorded as −0.6666.
The corresponding values for `CCCCCC(=O)c1ccccc1` [BR 3.5, Hexanophenone] are 100%, −1 and −1.
Take `CCOCCCNC(=O)c1ccccc1I` [BR 3.30, N-(3-ethoxypropyl)(2-iodophenyl) carboxamide]: in series [1], the “% honey left on repellent side” value is 80.45%, the “First choice Preference Index” value is given as −0.733 and the “Honey consumption Preference Index” value is recorded as −0.8.
With `CCOCCCNC(=O)c1ccccc1I` [N-(3-ethoxypropyl)-2-iodobenzamide], the “TGA volatility @ 40° C. (weight loss %/min)” value in series [3] amounted to 2.16E−05 weight loss %/min.
Turning to `CCOCCC(=O)N1CCc2ccccc21` [BR 3.9, 1-(2,3-Dihydro-1H-indol-1-yl)-3-ethoxy-1-propanone], in series [1], the “First choice Preference Index” value is given as −0.6 and the “Honey consumption Preference Index” value is given as −0.8.
Turning to `COCCC(=O)Oc1ccccc1` [Phenyl 3-methoxypropanoate], the “TGA volatility @ 40° C. (weight loss %/min)” value in series [3] stood at 1.66E−02 weight loss %/min.
Turning to `CCCC(=O)CCc1ccccc1` [1-phenyl-3-hexanone], the “TGA volatility @ 40° C. (weight loss %/min)” value in series [3] is reported as 1.37E−02 weight loss %/min.
As for `CCCCCCCCC(C)=O` [2-Decanone, reference compound], the “TGA volatility @ 40° C. (weight loss %/min)” value in series [3] is recorded as 0.1623 weight loss %/min.
The same measure, in the same setting: then `CCOC(=O)CNc1ccccc1C#N` [Ethyl 2-(2-Cyanoanilino) acetate], with 4.04E−05 weight loss %/min.
`CCOC(=O)CC1CCc2ccccc21` (stereo not shown) [ethyl 2-(2,3-dihydro-1H-inden-1-yl) acetate]: the “TGA volatility @ 40° C. (weight loss %/min)” value in series [3] is 4.61E−03 weight loss %/min.
Turning to `O=C(/C=C/c1cccnc1)c1ccncc1` [BR 4.4, 3-(3-Pyridinyl)-1-(4-pyridinyl)-2-propen-1-one], in series [1], the “First choice Preference Index” value was −0.7142 and the “Honey consumption Preference Index” value was −0.7143.
In the case of `CCNC(=O)c1cccc(Br)c1` [3-bromo-N-ethylbenzamide], in series [3], the “TGA volatility @ 40° C. (weight loss %/min)” value is given as 1.40E−04 weight loss %/min.
